Results: PubChem BioAssay (NCI)
“And” between values parts separate entries of the source, which are not always exact repeats. Equal values may be shown once.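 Grown in 96-well plates, cells were treated for 48 hours with each compound at five concentrations. Insufficient inhibition: endpoint recorded as highest concentration tested. Here, GI50 denotes the concentration required for 50% inhibition of growth. Definition used: TGI = concentration required for complete inhibition of growth.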

Tests used:
Assay in all cases: NCI anticancer screen, dose series, 48 h
SK-MEL-28 melanoma = test system: SK-MEL-28 melanoma
NCI-H23 lung = test system: NCI-H23 lung
RXF 393 renal = test system: RXF 393 renal
SNB-19 CNS = test system: SNB-19 CNS
EKVX NSCLC = test system: EKVX NSCLC
MDA-MB-435 = test system: MDA-MB-435
NCI-H226 lung = test system: NCI-H226 lung
DU-145 prostate = test system: DU-145 prostate
HS 578T breast = test system: HS 578T breast
MALME-3M melanoma = test system: MALME-3M melanoma

Row | SMILES | GI50 (SK-MEL-28 melanoma) | TGI (SK-MEL-28 melanoma) [µM] | GI50 (NCI-H23 lung) | TGI (NCI-H23 lung) | GI50 (RXF 393 renal) | TGI (RXF 393 renal) | GI50 (SNB-19 CNS) | TGI (SNB-19 CNS) | GI50 (EKVX NSCLC) [µM] | TGI (EKVX NSCLC) [µM] | GI50 (MDA-MB-435) | TGI (MDA-MB-435) | GI50 (NCI-H226 lung) | TGI (NCI-H226 lung) | GI50 (DU-145 prostate) | TGI (DU-145 prostate) [µM] | GI50 (HS 578T breast) | TGI (HS 578T breast) | GI50 (MALME-3M melanoma) | TGI (MALME-3M melanoma)
1 | CCOc1cccc(/C=N/NC(=O)Cc2ccc(Nc3ccnc(C(F)(F)F)c3)cc2)c1O | 2.97 µM | > 100 | 5.26 µM | > 100 µM | 3.2 µM | 40 µM | 2.54 µM | > 100 µM | 3.87 | > 100 | 3.77 µM | > 100 µM | 3.21 µM | 34.9 µM | 2.06 µM | > 100 | 5.75 µM | > 100 µM | 2.13 µM | 18.7 µM
2 | Nc1ccc2c(SCC(=O)Nc3ccccc3-c3ccccc3NC(=O)CSc3c4ccccc4nc4cc(N)ccc34)c3ccccc3nc2c1 |  | 52.5 |  | 39.5 µM |  | 63.5 µM |  | 44.2 µM |  | > 100 |  | > 73.5 µM |  | 72.6 µM |  | > 58.7 |  | > 90 µM |  | 56 µM
3 | CC(=O)Nc1ccc2c(c1)CN1C(=O)c3ccccc3C1=N2 | > 100 µM | > 100 | > 100 µM | > 100 µM | > 100 µM | > 100 µM | > 100 µM | > 100 µM | > 100 | > 100 | > 100 µM | > 100 µM | > 100 µM | > 100 µM | > 100 µM | > 100 | > 100 µM | > 100 µM | > 100 µM | > 100 µM
4 | CC[C@H](C)[C@H](NC(=O)N[C@@H](C)c1ccccc1)C(=O)N(C)[C@H](C[C@@H](OC(C)=O)c1nc(C(=O)N[C@@H](Cc2ccccc2)C[C@H](C)C(=O)OC)cs1)C(C)C | 47 µM | > 100 | 28.2 µM | > 100 µM | 13.9 µM | 57.3 µM | 28.6 µM | > 100 µM | 37.5 | > 100 | 3.27 µM | 13.3 µM | 44.1 µM | > 100 µM | 32.8 µM | > 100 | 15.9 µM | 56.7 µM | > 100 µM | > 100 µM
5 | CC(=O)c1c(Nc2ccc(F)c(F)c2F)[nH]c2c(F)cc(F)cc2c1=O | 0.356 µM | 3.57 | 0.286 µM | 4.41 µM | 0.3 µM | 2.41 µM | 0.354 µM | > 70.2 µM | 0.303 | > 40.4 | 0.365 µM | 7.26 µM | 0.297 µM | 1.87 µM | 0.403 µM | > 100 | 0.293 µM | 8.69 µM | 0.207 µM | 0.643 µM
6 | Oc1cccc(-c2nc(N3CCOCC3)c3oc4ncccc4c3n2)c1 | 0.152 µM and 0.0882 µM | 2.22 | 0.269 µM and 0.292 µM | > 100 µM and 31.4 µM | 0.0796 µM and 0.116 µM | 0.361 µM and 0.55 µM | 0.358 µM and 0.247 µM | 7.43 µM and 6.83 µM | 0.213 | 0.82 | 0.122 µM and 0.0675 µM | 0.847 µM and 0.784 µM | 4.12 µM and 7.21 µM | 78.6 µM and 68.3 µM | 0.188 µM and 0.161 µM | > 100 | 0.0576 µM and 0.0526 µM | 2.94 µM and 0.409 µM | 0.0373 µM and 0.0287 µM | 0.395 µM and 0.264 µM
7 | COc1ccc(-c2cn(-c3cc(OC)c(OC)c(OC)c3)c(=O)n2-c2ccccc2)cc1 | > 100 µM | > 100 | > 100 µM | > 100 µM | 45.4 µM | > 100 µM | > 100 µM | > 100 µM | > 100 | > 100 | > 100 µM | > 100 µM | > 100 µM | > 100 µM | > 100 µM | > 100 | 53.2 µM | > 100 µM | 38.5 µM | > 100 µM
8 | O=C(Nc1cccc(Cl)c1)c1cc(Cl)ccc1O | 0.415 µM | 3.77 | 0.486 µM | 3.55 µM | 0.849 µM | 4.27 µM | 0.481 µM | 36.6 µM | 1.83 | > 26.3 | 0.661 µM | 5.99 µM | 1.05 µM | 4.12 µM | 1.66 µM | > 54.1 | 0.282 µM | 1.46 µM | 0.4 µM | 2.66 µM
9 | O=C1Nc2ccc(Br)cc2C1=Nc1ccc(Cl)cc1 |  | 82.5 |  | > 100 µM |  | 40.1 µM |  | 97 µM |  | 47.1 |  | 20.6 µM |  | 58.8 µM |  | > 100 |  | > 100 µM |  | 48.5 µM
